Data on 3 compounds can be found in US20040224989A1, “S-lansoprazole compositions and methods” (priority 1999, published 2004).

The conditions of data set [1]: in humans; cited from earlier work.
For the next data set, the system named is gastric acid secretion. To be noted: in humans; cited from earlier work.
Data set [2] relates to hepatic drug metabolizing enzyme systems. To be noted: relative to omeprazole; cited from earlier work.
For another data set, the system named is serum gastrin. The following applies: humans, on administration; cited from earlier work.
Data set [3] has as its system CYP2D6. In words: metabolism by CYP2D6. To be noted: CYP2D6 is the polymorphically expressed enzyme.
A short description of the next data set: stability at low pH. Format: physicochemical. The text has this: The terms “pharmaceutically acceptable salts” or “a pharmaceutically acceptable salt thereof” refer to salts prepared from pharmaceutically acceptable non-toxic bases. […] Suitable pharmaceutically acceptable base addition salts for the compound of the present invention include metallic salts of aluminum, calcium, lithium, magnesium, potassium, sodium, titanium and zinc or organic salts made from lysine, N,N′-dibenzylethylenediamine, chloroprocaine, choline, diethanolamine, ethylenediamine, meglumine (N-methylglucamine) and procaine. If any salt is to be used, sodium salts are preferred.

Another data set addresses CYP3A4 (Homo sapiens, UniProt P08684). The experiment in a line: metabolism by CYP3A4.
Data set [4] is described as follows: pharmacokinetic and duration profile of the S(−) isomer. Format: in vivo. The following applies: compared with racemic lansoprazole. The text has this:
Syndrome, psoriasis and other disorders, including those that would benefit from an inhibitory action on H^+, K^+-ATPase in that it provides this effective treatment while substantially reducing the adverse effects of racemic lansoprazole including, but not limited to, hepatocellular neoplasia, gastric carcinoids, headache, diarrhea and skin alterations.

Another data set relates to canine parietal cells. To be noted: isolated canine parietal cells; (+) versus (−) enantiomer; Nagaya et al.; cited from earlier work.
Data set [5] deals with CYP2D6.

Like-named read-outs stand apart in the source and are kept apart here.

Chain of CYP3A4 (P08684 whole entry): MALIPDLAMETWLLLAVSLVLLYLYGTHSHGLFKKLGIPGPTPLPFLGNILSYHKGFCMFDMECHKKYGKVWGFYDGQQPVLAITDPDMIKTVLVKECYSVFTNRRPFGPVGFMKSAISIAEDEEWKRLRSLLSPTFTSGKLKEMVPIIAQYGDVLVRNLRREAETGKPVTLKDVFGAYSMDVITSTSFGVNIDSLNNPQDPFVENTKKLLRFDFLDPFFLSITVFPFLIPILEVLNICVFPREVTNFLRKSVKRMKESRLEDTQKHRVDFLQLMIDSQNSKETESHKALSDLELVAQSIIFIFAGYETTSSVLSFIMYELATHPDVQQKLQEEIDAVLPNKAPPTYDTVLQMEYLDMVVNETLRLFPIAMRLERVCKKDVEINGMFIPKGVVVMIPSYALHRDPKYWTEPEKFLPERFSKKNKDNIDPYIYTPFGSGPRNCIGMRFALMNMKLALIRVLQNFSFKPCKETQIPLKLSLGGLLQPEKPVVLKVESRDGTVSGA

In the case of `Cc1c(OCC(F)(F)F)ccnc1C[S+]([O-])c1nc2ccccc2[nH]1` (racemic) [racemic lansoprazole, 2-[3-methyl-4-(2,2,2-trifluoroethoxy)pyrid-2-yl]methylsulfinyl-benzimidazole], in data set [1], the serum half-life entry is recorded as “about 1.5 hours”. Moreover, in the data set on gastric acid secretion, the “duration of the acid inhibitory effect” value was “about 24 hours”. Further, the “effects on hepatic drug metabolizing enzyme systems” value in [2] is recorded as “comparable to omeprazole”. In addition, the “fasting serum gastrin levels” value with serum gastrin is given as “significantly elevated”.

Consider `Cc1c(OCC(F)(F)F)ccnc1C[S+]([O-])c1nc2ccccc2[nH]1` (single isomer, unassigned; (-)) [S(−) lansoprazole, (−) isomer of 2-[3-methyl-4-(2,2,2-trifluoroethoxy)pyrid-2-yl]methylsulfinyl-benzimidazole], for which, in the data set with CYP2D6 [3], the “metabolism by CYP2D6” value was “metabolized by both CYP2D6 and CYP3A4”. The “stability at low pH” value in “stability at low pH” is reported as “unstable at low pH”. Moreover, the “metabolism by CYP3A4” value at CYP3A4 is “metabolized by both CYP2D6 and CYP3A4”. Further, in data set [4], the “AUC (area under the curve)” value is “higher AUC”, the duration result is reported as “longer duration”, the first pass metabolism result is “lower first pass metabolism” and the onset result is on record as “more rapid onset”. Also, the “effect on acid formation stimulated by db-cAMP” value in the data set with canine parietal cells is “almost identical”.

With `Cc1c(OCC(F)(F)F)ccnc1C[S@@+]([O-])c1nc2ccccc2[nH]1` [R(+) lansoprazole, reference compound], the “metabolism by CYP3A4” value on CYP3A4 is “metabolized only by CYP2D6”. Further, the “effect on acid formation stimulated by db-cAMP” value in the data set with canine parietal cells is given as “almost identical”. Further, in the data set with CYP2D6 [5], the “metabolism by CYP2D6” value is “metabolized only by CYP2D6”.
